Laboratory results reported in patent publication US8361743B2, “Biological production of zeaxanthin and carotenoid biosynthesis control” (Aquapharm Bio-Discovery Ltd., priority 2005, dated 2013).

Test system: strain AQP096
Assay: Induction of the carotenoid biosynthetic pathway using menadione, HPLC carotenoid analysis
Assay type: cell-based, Algibacter sp. AQP096
Description: On the HPLC using a reverse phase Gemini C-18 250×4.6 mm column, 10 μl of pigment sample was eluted with a linear gradient from 10% v/v Acetone in Water: 100% Acetone (30:70) to 10% v/v Acetone in Water:100% Acetone (5:95) for 10 min followed with a 6 minute run of 10% v/v Acetone in Water:100% Acetone (5:95) before returning to the start conditions of 10% v/v Acetone in Water: 100% Acetone (30:70) with a 1 min linear gradient and a two minute run of 10% v/v Acetone in Water:100% Acetone (30:70) at a flow rate of 1.3 ml/min. Detection was at 450 nm. Menadione at a concentration of 0.100 mg/ml was added to a 24 hr old culture of AQP096 cultured in marine broth. This culture was further incubated for 4 days on the orbital shaker at 220 rpm […]. After 5 days of incubation, cultures were centrifuged (4,500 rpm, 20 min) and the pigments analysed for carotenoid content by HPLC (See FIGS. 4a and 4b).

CC1=CC(=O)c2ccccc2C1=O [menadione]
induced production of astaxanthin (menadione 0.100 mg/ml): ~12% | induced production of beta carotene (menadione 0.100 mg/ml): about 10% | induced production of beta-cryptoxanthin (menadione 0.100 mg/ml): ~8% | induced production of canthaxanthin (menadione 0.100 mg/ml): ~12% | induced production of lycopene (menadione 0.100 mg/ml): ~6% | induced production of other carotenoids such as adonirubin and 3-hydroxyechinenone (menadione 0.100 mg/ml): ~2% | effect on carotenoid production (menadione 0.100 mg/ml added to 24 hr old culture in marine broth, HPLC): induced the production of all carotenoids associated with the standard carotenoid biosynthetic pathway | amount of zeaxanthin produced by AQP096 (menadione 0.100 mg/ml, 98% under standard growth conditions): around 60%
